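Five compound concentrations were applied to cells in 96-well plates for 48 hours; endpoints were derived by simple linear interpolation of the resulting dose-response curve. TGI: concentration producing complete growth inhibition.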
What was measured:
Assay in all cases: NCI anticancer screen, dose series, 48 h
SNB-75 CNS = system: SNB-75 CNS
COLO 205 colon = system: COLO 205 colon
MOLT-4 leukemia = system: MOLT-4 leukemia
SK-MEL-28 melanoma = system: SK-MEL-28 melanoma
NCI-H522 lung = system: NCI-H522 lung
SK-MEL-5 melanoma = system: SK-MEL-5 melanoma
HL-60(TB) leukemia = system: HL-60(TB) leukemia
LOX IMVI melanoma = system: LOX IMVI melanoma
SNB-19 CNS = system: SNB-19 CNS
NCI-H460 lung = system: NCI-H460 lung
K-562 leukemia = system: K-562 leukemia
HOP-92 NSCLC = system: HOP-92 NSCLC
OVCAR-5 ovarian = system: OVCAR-5 ovarian
UO-31 renal = system: UO-31 renal
RPMI-8226 leukemia = system: RPMI-8226 leukemia
SF-295 CNS = system: SF-295 CNS
HCC-2998 colon = system: HCC-2998 colon
SR leukemia = system: SR leukemia
KM12 colon = system: KM12 colon
UACC-257 melanoma = system: UACC-257 melanoma
ACHN renal = system: ACHN renal
BT-549 breast = system: BT-549 breast
CCRF-CEM leukemia = system: CCRF-CEM leukemia
TK-10 renal = system: TK-10 renal
OVCAR-3 ovarian = system: OVCAR-3 ovarian
PC-3 prostate = system: PC-3 prostate
HCT-15 colon = system: HCT-15 colon
HOP-62 NSCLC = system: HOP-62 NSCLC
U251 CNS = system: U251 CNS
CAKI-1 renal = system: CAKI-1 renal
MDA-MB-231 breast = system: MDA-MB-231 breast
T-47D breast = system: T-47D breast
MDA-N = system: MDA-N
NCI/ADR-RES ovarian = system: NCI/ADR-RES ovarian
DU-145 prostate = system: DU-145 prostate
786-0 renal = system: 786-0 renal
MCF7 breast = system: MCF7 breast
HT29 colon = system: HT29 colon
EKVX NSCLC = system: EKVX NSCLC
IGROV1 ovarian = system: IGROV1 ovarian
SK-OV-3 ovarian = system: SK-OV-3 ovarian
SF-268 CNS = system: SF-268 CNS
MALME-3M melanoma = system: MALME-3M melanoma
M14 melanoma = system: M14 melanoma
HS 578T breast = system: HS 578T breast
UACC-62 melanoma = system: UACC-62 melanoma
OVCAR-4 ovarian = system: OVCAR-4 ovarian
SN12C renal = system: SN12C renal
HCT-116 colon = system: HCT-116 colon
MDA-MB-435 = system: MDA-MB-435
A549 NSCLC = system: A549 NSCLC
SF-539 CNS = system: SF-539 CNS
SW-620 colon = system: SW-620 colon
NCI-H226 lung = system: NCI-H226 lung
RXF 393 renal = system: RXF 393 renal
SK-MEL-2 melanoma = system: SK-MEL-2 melanoma
A498 renal = system: A498 renal
OVCAR-8 ovarian = system: OVCAR-8 ovarian
NCI-H23 lung = system: NCI-H23 lung

Measured: TGI

O=C(CCN1CCCCC1)Nc1ccc2sc3ccccc3c(=O)c2n1
93.6 µM: T-47D breast
41.9 µM: OVCAR-4 ovarian
19.2 µM: HL-60(TB) leukemia
52.4 µM: SN12C renal
22.9 µM: HCT-116 colon
30 µM: HCC-2998 colon
31.6 µM: SF-539 CNS
39 µM: SR leukemia
57.5 µM: MCF7 breast
35.3 µM: A549 NSCLC
23 µM: SNB-75 CNS
52.7 µM: ACHN renal
30.3 µM: PC-3 prostate | U251 CNS
33.8 µM: SK-MEL-28 melanoma
47.7 µM: SNB-19 CNS
28.6 µM: K-562 leukemia
37.2 µM: BT-549 breast
61.9 µM: SK-MEL-5 melanoma
46.1 µM: DU-145 prostate
33.2 µM: SW-620 colon
30.1 µM: UACC-62 melanoma
29.8 µM: HOP-62 NSCLC
48.7 µM: SK-OV-3 ovarian
22.1 µM: UO-31 renal
43.6 µM: MALME-3M melanoma
46.6 µM: HCT-15 colon
43.3 µM: SF-268 CNS
28.5 µM: 786-0 renal
24.5 µM: COLO 205 colon
33.6 µM: CAKI-1 renal
44.4 µM: MDA-MB-231 breast
43 µM: OVCAR-5 ovarian
54 µM: CCRF-CEM leukemia
33.7 µM: OVCAR-3 ovarian
42.1 µM: NCI-H460 lung
25.9 µM: NCI-H522 lung
24.8 µM: LOX IMVI melanoma | RPMI-8226 leukemia
> 100 µM: HT29 colon
84 µM: EKVX NSCLC
18.8 µM: MOLT-4 leukemia
25.8 µM: MDA-MB-435
46.9 µM: TK-10 renal
28.9 µM: MDA-N
1.79 µM: HOP-92 NSCLC
73.9 µM: NCI/ADR-RES ovarian
46.3 µM: UACC-257 melanoma
41.5 µM: HS 578T breast
45.7 µM: SF-295 CNS
31.3 µM: IGROV1 ovarian
34 µM: KM12 colon
27.3 µM: M14 melanoma

Nc1ccc2c(c1)S(=O)(=O)c1cc(O)ccc1O2
not listed: SNB-75 CNS | RPMI-8226 leukemia | MALME-3M melanoma
> 100 µM: all other assays above

CC(=O)NC(Cc1cnc[nH]1)C(=O)N1CCCC1C(N)=O (centres undefined)
not listed: UACC-257 melanoma | SF-539 CNS | SK-MEL-2 melanoma | A498 renal
> 100 µM: all other assays above
